# Read-outs that look alike come from different tables or passages of the source.
# Experiments:
# M. tuberculosis H37Rv [1] = experiment: MIC by BACTEC 460; assay type: cell-based, Mycobacterium tuberculosis; conditions: for MIC: Mycobacterium tuberculosis, H37RV, read-out: MIC (BACTEC)
# M. tuberculosis H37Rv [2] = experiment: In vivo efficacy, mice infected i.v. with M. tuberculosis, CFU in spleen and lungs; parameters: species or system C57BL/6 mice
# [3] = test system: RIF^R M. tuberculosis isolate 3185; experiment: microbe, parasite or virus in culture; assay type: cell-based; conditions: for concentration to which the strain was susceptible: strain 3185
# [4] = test system: RIF^R M. tuberculosis isolate 2482; experiment: microbe, parasite or virus in culture; assay type: cell-based; conditions: for concentration to which the strain was susceptible: strain 2482; for MIC (BACTEC): Strain 2482
# [5] = test system: H37Rv strain of Mycobacterium tuberculosis; experiment: microbe, parasite or virus in culture; assay type: cell-based; conditions: Mycobacterium tuberculosis, H37RV; read-out: MIC
# M. tuberculosis H37Rv [6] = experiment: Standard chronic mouse model of tuberculosis, CFU in lung; assay type: in vivo, C57BL/6 female mice; conditions: RIF (20 mg/kg) by itself, 4 week therapy
# [7] = test system: M. tuberculosis H37Rv (Pasteur); experiment: Rapid in vivo model of TB, body weight of infected mice; parameters: species or system C3H female mice; conditions: single drug alone (SQ109 10 mg/kg; RIF 2 mg/kg), by the 3 wk
# wild type of M.tb = experiment: MIC, secondary screening, wild type; assay type: cell-based, Mycobacterium tuberculosis; conditions: Mycobacterium tuberculosis, WT
# [8] = Mycobacterium tuberculosis, read-out: MIC (BACTEC)
smiles,measurement,setting,value
"NNC(=O)c1ccncc1 [INH, Isoniazid]",MIC,M. tuberculosis H37Rv [1],0.025 µg/mL
same,"activity in spleen and lung, rank among drugs",M. tuberculosis H37Rv [2]; INH 25 mg/kg,the most active drug in both spleen and lung
same,decrease of load of bacteria in organs,M. tuberculosis H37Rv [2]; during 4-6 weeks of chemotherapy,2-3 logs
same,concentration to which the strain was susceptible,[3],0.1 mg/L
same,concentration to which the strain was susceptible,[4],0.1 mg/L
same,MIC,[5],0.91 µM
"CO[C@H]1/C=C/O[C@@]2(C)Oc3c(C)c(O)c4c(O)c(c(/C=N/N5CCN(C)CC5)c(O)c4c3C2=O)NC(=O)/C(C)=C\C=C\[C@H](C)[C@H](O)[C@@H](C)[C@@H](O)[C@@H](C)[C@H](OC(C)=O)[C@@H]1C [RIF, Rifampicin]",MIC (BACTEC),M. tuberculosis H37Rv [1]; H37Rv,0.17 µg/mL
same,MIC,M. tuberculosis H37Rv [1],0.2 µg/mL
same,CFU in lung,M. tuberculosis H37Rv [6],5.8 log10
same,average weight,[7],19.7 g
same,MIC,[3]; [8],24 µg/mL
same,MIC (BACTEC),[3]; isolate 3185,24 µg/mL
same,MIC,[4]; [8],> 100 µg/mL
same,MIC (BACTEC),[4]; listed as Rifampicin,> 100 µg/mL
same,MIC (BACTEC),[4]; listed as rifampicin,> 100 µg/mL
CC1(C)C2CCC(CNCCNCC(c3ccccc3)c3ccccc3)[C@@H]1C2 (some centres unmarked) [RL 241],MIC,"wild type of M.tb; value in brackets, read-out: MIC (or uM)",3.34 µM
same,MIC,"wild type of M.tb; EMB, RL241, Cmpd#59 as 2HCl salt, Cmpd#109 as 2CF3COOH salt, read-out: MIC",1.5 µg/mL
"[H]/N=C(/N)N[C@H]1[C@H](O)[C@@H](O)[C@H](O[C@@H]2O[C@@H](C)[C@](O)(C=O)[C@H]2O[C@@H]2O[C@@H](CO)[C@H](O)[C@@H](O)[C@@H]2NC)[C@@H](N/C(N)=N\[H])[C@@H]1O [SM, Streptomycin]",MIC,M. tuberculosis H37Rv [1],0.25 µg/mL
same,concentration to which the strain was susceptible,[3],2 mg/L
same,concentration to which the strain was susceptible,[4],2 mg/L

# — patent US8202910B2 (Sequella, Inc., priority 2006, dated 2012)
